Here are results for eight compounds from patent publication US8779001B2, “Stat3 inhibitors” (The United States of America National Institute of Health …, priority 2008, dated 2014).

Test [1] relates to breast cancer cells with constitutively activated Stat3. Conditions: Schust et al., 2006; cited from earlier work.
In the next test the target is T1, Stat1 (Homo sapiens, UniProt P42224).
T1 construct: endogenous in cells; host or cells: HepG2
T1 sequence (P42224 1-750): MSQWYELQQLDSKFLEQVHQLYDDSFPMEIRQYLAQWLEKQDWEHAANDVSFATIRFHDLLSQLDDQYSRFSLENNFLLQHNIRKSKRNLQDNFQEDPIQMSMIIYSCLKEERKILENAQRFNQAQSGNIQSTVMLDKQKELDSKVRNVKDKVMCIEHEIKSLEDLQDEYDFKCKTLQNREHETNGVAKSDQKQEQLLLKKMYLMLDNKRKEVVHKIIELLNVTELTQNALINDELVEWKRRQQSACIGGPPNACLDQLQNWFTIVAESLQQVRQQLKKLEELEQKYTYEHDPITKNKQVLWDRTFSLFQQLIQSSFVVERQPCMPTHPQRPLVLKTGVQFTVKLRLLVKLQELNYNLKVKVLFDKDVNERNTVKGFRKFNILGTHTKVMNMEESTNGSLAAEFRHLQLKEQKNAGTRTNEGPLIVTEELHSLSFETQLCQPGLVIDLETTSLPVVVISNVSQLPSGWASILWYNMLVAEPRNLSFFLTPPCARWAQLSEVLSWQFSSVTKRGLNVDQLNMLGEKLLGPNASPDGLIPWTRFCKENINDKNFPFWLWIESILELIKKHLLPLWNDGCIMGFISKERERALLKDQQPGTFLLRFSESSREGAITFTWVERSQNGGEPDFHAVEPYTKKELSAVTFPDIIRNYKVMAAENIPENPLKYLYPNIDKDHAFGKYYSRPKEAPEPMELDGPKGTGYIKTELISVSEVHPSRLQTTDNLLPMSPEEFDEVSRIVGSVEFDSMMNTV
Nature of the test: Immunoblot assay of IFN-γ-stimulated Stat1 phosphorylation in HepG2 cells. Format: cell-based. The settings on record: HepG2, compound 300 μM, 1 hour, IFN-γ 30 ng/ml 30 min. As to the method:
HepG2 cells were pretreated with DMSO alone or DMSO containing each of the compounds at a concentration of 300 μM for 60 min. Cells were then stimulated with IFN-γ (30 ng/ml) for 30 min. Protein extracts of cells were separated by SDS-PAGE and immunoblotted serially with antibodies to pStat1, total Stat1 and β-actin. Blots were stripped between each immunoblotting. The results shown are representative of 2 or more experiments.
Immunoblot assay. The human hepatocellular carcinoma cell line (HepG2) was grown in 6-well plates under standard conditions. Cells were pretreated with compounds (0, 1, 3, 10, 30, 100 and 300 uM) for 1 hour then stimulated under optimal conditions with either interferon gamma (IFN-γ; 30 ng/ml for 30 min) to activate Stat1 or interleukin-6 (IL-6; 30 ng/ml for 30 min) to activate Stat3 (30-31). Cultures were then harvested and proteins extracted using high-salt buffer, as described (Shao et al., 2006). Briefly, extracts were mixed with 2× sodium dodecyl sulfate (SDS) sample buffer (125 mmol/L Tris-HCL pH 6.8; 4% SDS; 20% glycerol; 10% 2-mercaptoethanol) at a 1:1 ratio and heated for 5 minutes at 100° C. Proteins (20 μg) were separated by 7.5% SDS-PAGE and transferred to polyvinylidene fluoride (PVDF) membrane (Millipore, Waltham, Mass.) and immunoblotted. Prestained molecular weight markers (Biorad, Hercules, Calif.) were included in each gel. Membranes were probed serially with antibody against Stat1 pY^701 or Stat3 pY^705 followed by antibody against Stat1 or Stat3 (Transduction labs, Lexington, Ky.) then antibody against β-actin (Abeam, Cambridge, Mass.). Membranes were stripped between antibody probing using Restore™ Western Blot Stripping Buffer (Thermo Fisher Scientific Inc., Waltham, Mass.) per the manufacturer's instructions. Horseradish peroxidase-conjugated goat-anti-mouse IgG was used as the secondary antibody (Invitrogen Carlsbad, Calif.) and the membranes were developed with enhanced chemiluminescence (ECL) detection system (Amersham Life Sciences Inc.; Arlington Heights, Ill.).
While Stat3 contributes to oncogenesis, in part, through inhibition of apoptosis, Stat1 is anti-oncogenic; it mediates the apoptotic effects of interferons and contributes to tumor surveillance (Kaplan et al., 1998; Ramana et al., 2000). Consequently, compounds that target Stat3 while sparing Stat1, leaving its anti-oncogenic functions unopposed, may result in a synergistic anti-tumor effect. […] Thus, five of the six exemplary compounds identified were selective and inhibited ligand-stimulated phosphorylation of Stat3 but not Stat1.
EXP IIC. Ligand-mediated pStat3 and pStat1 inhibition assays. […] Briefly, human hepatocellular carcinoma cells (HepG2) are grown in 6-well plates and pretreated with compounds (0, 0.1, 0.3, 1, 3, 10, 30, 100 μM) for 1 hour then stimulated under optimal conditions with either interleukin-6 (IL-6; 30 ng/ml for 30 min) to activate Stat3 or interferon gamma (IFN-γ, 30 ng/ml for 30 min) to activate Stat1. Cells are harvested and proteins extracted using high-salt buffer, mixed with 2× sodium dodecyl sulfate (SDS) sample buffer (125 mmol/L Tris-HCL pH 6.8; 4% SDS; 20% glycerol; 10% 2-mercaptoethanol) at a 1:1 ratio then heated for 5 minutes at 100° C. Proteins (20 μg) are separated by 7.5% SDS-PAGE and transferred to polyvinylidene fluoride (PVDF) membrane (Millipore, Waltham, Mass.) and immunoblotted. Membranes are probed serially with antibody against Stat1 pY701 or Stat3 pY705 followed by antibody against Stat1 or Stat3 (Transduction labs, Lexington, Ky.) then antibody against β-actin (Abcam, Cambridge, Mass.). Membranes are stripped between antibody probings using Restore™ Western Blot Stripping Buffer (Thermo Fisher Scientific Inc., Waltham, Mass.) per the manufacturer's instructions. […]
(In general: A western blot detects proteins with antibodies after separation by electrophoresis.)

The target in the next test is T2, Stat3:hSIE complexes (Homo sapiens, UniProt P40763).
T2 construct: endogenous in cells; host or cells: HepG2
Nature of the test: Electrophoretic mobility shift assay (EMSA) of Stat3 DNA binding. Format: biochemical. Conditions: extracts of IL-6-stimulated HepG2 cells, compound 300 μM, 60 minutes at 37° C. The protocol:
Electrophoretic mobility shift assays were performed using whole-cell extracts prepared from HepG2 cells without and with stimulation with IL-6 (30 ng/ml) for 30 min. Protein (20 μg) was incubated with radiolabeled duplex oligonucleotide (hSIE) and DMSO without or with the indicated compounds (300 uM) for 60 minutes at 37° C. then separated by PAGE. The gel was dried and autoradiographed; the portion of the gel corresponding to the Stat3-bound hSIE band is shown. Data shown are representative of 2 studies.
Electrophoretic Mobility Shift Assay (EMSA): EMSA was performed using the hSIE radiolabeled duplex oligonucleotide as a probe as described (Tweardy et al., 1995). Briefly, high salt extracts were prepared from HepG2 cells incubated without or with IL-6 (30 ng/ml) for 30 minutes. Protein concentration was determined by Bradford Assay and 20 ug of extract was incubated with compound (300 uM) for 60 minutes at 37° C. […] Gels were dried and autoradiographed.
Once in the nucleus, Stat3 dimers bind to specific DNA elements to activate and, in some instances, repress gene transcription. […] Compounds that bind to the phosphopeptide-binding site of Stat3 might be expected to do the same. […]
(In general: In EMSA bound probe runs differently from free probe, usually more slowly.)

The subject of a further test is breast cancer cell lines. Nature of the test: Breast cancer cell line apoptosis assay, statements over several cell lines. The settings on record: five breast cancer cell lines. Format: cell-based, human. The protocol:
MDA-MB-468 (panel A), MDA-MB-231 (panel B), MDA-MB-435 (panel C), MCF7 (panel D) and MDA-MB-453 (panel E) were seeded in 12-well plates, grown overnight then treated with the indicated compound for 24 hr. Cells were centrifuged and the supernatants assayed for nucleosome levels by ELISA.
Human breast carcinoma cell lines MDA-MB-468, MDA-MB-231, MBA-MD-435 and MCF7 were kindly provided by Dr. Powel H. Brown (Breast Cancer Center, Baylor College of Medicine). Breast cancer cell line, MDA-MB-453 was kindly provided by Dr. Shou Jiang (Breast Cancer Center, Baylor College of Medicine). […] Cells were seeded at 2,500 cells/cm^2 into 12-well plates. […] At 24 hours, treatment was terminated by removing the medium from each well. […] The percent maximum nucleosome level was calculated by dividing the nucleosome level by the maximum nucleosome level achieved in the assay and multiplying by 100.

Test [2] deals with triple negative human breast cancer xenograft. Briefly: Two-day pilot triple-negative human breast cancer xenograft experiment, MSFE measured. Conditions: 250 mcg, two days of treatment, P<0.05. The format is in vivo, SCID Beige mice. The text has this: The mice were sacrificed after two days and MSFE measured.
A tumor line derived from a “triple negative” (ER-negative, PgR-negative, and HER-2 negative) human breast cancer biopsy specimen was transplanted into immunocompromised SCID Beige mice. The animals (n=3) received two doses of vehicle control, 2 different doses of Cpd 188 (125 or 250 mcg), a G-quartet oligodeoxynucleotide (GQ-ODN, T40214; GQ-I) previously determined to target Stat3 (Jing et al., 2004) and a control non-specific ODN (GQ-II) each at two doses (125 or 250 mcg). The animals were sacrificed after only two days of treatment, and MSFE determined.

The next test concerns the target Stat3 (Homo sapiens, UniProt P40763). Conditions: fluorescence polarization, Coleman et al., 2005; read-out: IC50 inhibition of Stat3 binding to pY-peptide; cited from earlier work. Background: Fluorescence polarisation rises when a labelled molecule tumbles more slowly, as on binding a larger partner.

T2 sequence (P40763 2-770 limits assumed, one chain of several): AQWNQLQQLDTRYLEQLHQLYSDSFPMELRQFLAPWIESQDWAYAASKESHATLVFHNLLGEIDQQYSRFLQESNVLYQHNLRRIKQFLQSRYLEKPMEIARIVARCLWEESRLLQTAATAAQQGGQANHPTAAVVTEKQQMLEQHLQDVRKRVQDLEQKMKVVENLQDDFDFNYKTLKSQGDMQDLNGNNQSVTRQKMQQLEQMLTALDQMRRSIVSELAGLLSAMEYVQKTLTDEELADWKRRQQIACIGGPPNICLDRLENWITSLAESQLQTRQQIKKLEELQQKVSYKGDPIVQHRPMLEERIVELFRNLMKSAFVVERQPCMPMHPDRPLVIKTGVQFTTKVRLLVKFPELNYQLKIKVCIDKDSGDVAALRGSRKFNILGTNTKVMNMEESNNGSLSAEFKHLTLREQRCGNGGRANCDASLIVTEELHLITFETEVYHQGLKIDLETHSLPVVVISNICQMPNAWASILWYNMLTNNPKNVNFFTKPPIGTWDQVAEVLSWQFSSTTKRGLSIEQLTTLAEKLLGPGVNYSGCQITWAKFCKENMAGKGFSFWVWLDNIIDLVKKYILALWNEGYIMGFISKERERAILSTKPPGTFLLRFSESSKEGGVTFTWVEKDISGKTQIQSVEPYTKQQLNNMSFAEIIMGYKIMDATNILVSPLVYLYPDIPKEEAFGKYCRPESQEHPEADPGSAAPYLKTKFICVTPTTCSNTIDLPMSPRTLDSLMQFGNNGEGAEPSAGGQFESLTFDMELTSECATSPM
Chain of Stat3 (P40763 whole entry): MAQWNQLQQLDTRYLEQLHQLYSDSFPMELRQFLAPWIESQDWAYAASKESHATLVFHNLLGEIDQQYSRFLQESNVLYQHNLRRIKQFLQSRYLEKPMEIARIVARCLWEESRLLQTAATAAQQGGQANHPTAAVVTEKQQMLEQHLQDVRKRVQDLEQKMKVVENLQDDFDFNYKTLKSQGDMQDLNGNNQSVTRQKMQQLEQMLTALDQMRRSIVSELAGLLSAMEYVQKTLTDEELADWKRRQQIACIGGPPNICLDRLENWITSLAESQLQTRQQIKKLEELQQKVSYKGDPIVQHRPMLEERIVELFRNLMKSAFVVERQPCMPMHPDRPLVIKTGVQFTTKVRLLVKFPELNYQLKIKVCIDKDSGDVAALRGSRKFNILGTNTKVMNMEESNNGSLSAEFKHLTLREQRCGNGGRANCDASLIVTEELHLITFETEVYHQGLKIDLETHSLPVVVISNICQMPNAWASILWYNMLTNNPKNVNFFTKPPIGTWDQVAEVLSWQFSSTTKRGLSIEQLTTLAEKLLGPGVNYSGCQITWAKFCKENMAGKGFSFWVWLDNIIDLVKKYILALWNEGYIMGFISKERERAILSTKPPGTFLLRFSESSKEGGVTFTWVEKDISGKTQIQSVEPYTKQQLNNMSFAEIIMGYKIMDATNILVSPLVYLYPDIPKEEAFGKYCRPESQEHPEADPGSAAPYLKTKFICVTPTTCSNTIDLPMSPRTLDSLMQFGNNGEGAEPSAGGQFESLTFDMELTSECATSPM

Consider `O=[N+]([O-])c1ccc2c(c1)S(=O)(=O)C=C2` [Stattic], for which the “concentration range inducing apoptosis / Stat3 inhibitory effects” value in test [1] is 5 to 20 µM. As for `CCN1C(=O)C(=Cc2ccc(-c3cc(C(=O)O)ccc3Cl)o2)C(=O)N(CC)C1=S` [Cpd30-12, 4-chloro-3-{5-[(1,3-diethyl-4,6-dioxo-2-thioxotetrahydro-5(2H)-pyrimidinylidene)methyl]-2-furyl}benzoic acid], the “effect on IFN-γ-stimulated Stat1 phosphorylation” value at Stat1 is “blocked Stat1 phosphorylation”. For the compound `COC(=O)Cc1c(C)c2ccc(OCc3ccc(C(=O)OC)cc3)c(C)c2oc1=O` [Cpd3-7, methyl 4-({[3-(2-methyoxy-2-oxoethyl)-4,8-dimethyl-2-oxo-2H-chromen-7-yl]oxy}methyl)benzoate], the “effect on IFN-γ-stimulated Stat1 phosphorylation” value at Stat1 is listed as “did not”. For the same compound, on Stat3:hSIE complexes, the “effect on Stat3:hSIE band intensity (EMSA)” value is “reduced the amount of hSIE shifted by half or greater”. The “induction of apoptosis of any of the breast cancer cell lines tested” value in the test on breast cancer cell lines is “neither Cpd3-2 nor Cpd3-7 induced apoptosis”. For the compound `O=C(O)CSc1cc(NS(=O)(=O)c2ccc(C(=O)O)cc2)c2ccccc2c1O` [Cpd188, 4-[({3-[(carboxymethyl)thio]-4-hydroxy-1-naphthyl}amino)sulfonyl]benzoic acid], at Stat1, the “effect on IFN-γ-stimulated Stat1 phosphorylation” value is “did not”. For the same compound, the “reduction in MSFE compared to control” value in test [2] is given as “significant reduction in MSFE”. Take `O=C(O)c1ccc(C=CC(=O)c2ccc3c(c2)OCCO3)cc1` [Cpd3, 4-[3-(2,3-dihydro-1,4-benzodioxin-6-yl)-3-oxo-1-propen-1-yl]benzoic acid]: at Stat1, the “effect on IFN-γ-stimulated Stat1 phosphorylation” value is “did not”. For the same compound, the “effect on Stat3:hSIE band intensity (EMSA)” value on Stat3:hSIE complexes is “reduced the amount of hSIE shifted by half or greater”. As to “hydrocinnamoyl-Tyr(PO3H2)-Leu-cis-3,4-methanoPro-Gln-NHB”, the IC50 – broadly, the concentration that inhibits the measured activity by half – at Stat3 is 125 nM.

`CCN1C(=O)C(=Cc2ccc(-c3ccc(C(=O)O)cc3)o2)SC1=S` [Cpd30, 4{5-[(3-ethyl-4-oxo-2-thioxo-1,3-thiazolidin-5-ylidene)methyl]-2-furyl}benzoic acid]: the “effect on IFN-γ-stimulated Stat1 phosphorylation” value on Stat1 was “did not”. As for `CCOc1cc(C=C2C(=O)c3ccccc3C2=O)cc(Cl)c1OCc1cccc(C(=O)O)c1` [Cpd3-2, 3-({2-chloro-4-[(1,3-dioxo-1,3-dihydro-2H-inden-2-ylidene)methyl]-6-ethoxyphenoxy}methyl)benzoic acid], at Stat1, the “effect on IFN-γ-stimulated Stat1 phosphorylation” value was “did not”. Also, in the test with breast cancer cell lines, the “induction of apoptosis of any of the breast cancer cell lines tested” value was “neither Cpd3-2 nor Cpd3-7 induced apoptosis”.
